Where two headings read alike, the source gives them in different places.
Legend:
Format in all cases: biochemical
[1] = molecular target: EGFR T790M/L858R kinase domain (Homo sapiens (Human), UniProt P00533, L858R/T790M); test: EGFR enzymatic assay, TR-FRET, EGFR T790M/L858R
WT EGFR kinase domain = WT EGFR kinase domain (Homo sapiens (Human), UniProt P00533); test: EGFR enzymatic assay, TR-FRET, WT EGFR
C-Raf (Y340D/Y341D) = C-Raf (Y340D/Y341D) (Homo sapiens (Human), UniProt P04049, Y340D/Y341D); test: Raf IC50 assay, TR-FRET, C-Raf (Y340D/Y341D); conditions: 0.1 mM ATP
Chain of C-Raf (Y340D/Y341D) (P04049 whole entry Y340D/Y341D): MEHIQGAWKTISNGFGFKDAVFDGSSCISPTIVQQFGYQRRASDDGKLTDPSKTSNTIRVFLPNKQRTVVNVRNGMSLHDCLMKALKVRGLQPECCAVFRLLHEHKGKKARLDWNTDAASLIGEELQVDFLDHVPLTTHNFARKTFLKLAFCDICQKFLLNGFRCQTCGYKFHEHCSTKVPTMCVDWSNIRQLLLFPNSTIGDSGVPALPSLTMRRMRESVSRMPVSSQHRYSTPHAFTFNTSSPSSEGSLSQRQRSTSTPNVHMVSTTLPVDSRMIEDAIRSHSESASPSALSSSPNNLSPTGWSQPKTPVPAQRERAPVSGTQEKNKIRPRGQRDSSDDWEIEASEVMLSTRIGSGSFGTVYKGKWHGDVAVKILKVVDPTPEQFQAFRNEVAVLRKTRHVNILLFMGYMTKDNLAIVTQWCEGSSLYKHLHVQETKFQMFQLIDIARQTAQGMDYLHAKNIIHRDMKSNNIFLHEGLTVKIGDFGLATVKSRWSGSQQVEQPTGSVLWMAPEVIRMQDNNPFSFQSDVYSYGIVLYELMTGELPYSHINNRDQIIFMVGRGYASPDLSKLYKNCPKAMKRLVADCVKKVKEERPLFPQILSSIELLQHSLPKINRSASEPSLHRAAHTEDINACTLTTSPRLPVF
Procedure: Compounds disclosed herein were tested against B-Raf (V600E) (PV3849, from Invitrogen) or C-Raf (Y340D/Y341D) (PV3805, from Invitrogen) in a time-resolved fluorescence energy transfer assay. The assay was carried out in reactions (10 μL) containing 0.0625 nM B-Raf or 0.5 nM C-Raf, 25 mM Tris pH7.4, 10 mM MgCl2, 0.5 mM EGTA, 0.5 mM Na3VO4, 5 mM beta-glycerophosphate, 0.01% Triton X-100, 2.5 mM DTT, 0.1% BSA, 0.1 mM ATP, 13.7 nM GST-tagged MEK1 (Full-length protein with K97R mutation, recombinant protein purified from bacterial expression system) and 0-5 μM compounds disclosed herein (final concentration of 1% DMSO). The enzyme was incubated with the compounds disclosed herein at room temperature for 60 minutes and the reactions were initiated by the addition of ATP and GST-MEK1. After reaction at room temperature for 60 minutes, an equal volume of stop/detection solution was added according to the manufacture's instruction (CisBio Bioassays). The stop/detection solution contained Eu^3+ cryptate-conjugated anti-phospho MEK1/2 (Ser217/221) rabbit polyclonal antibody and d2-conjugated anti-GST mouse monoclonal antibody in buffer containing 25 mM Tris pH7.4, 400 mM KF, 50 mM EDTA, 0.01% BSA and 0.01% Triton X-100. Plates were sealed and incubated at room temperature for 2 hours, and the TR-FRET signals (ratio of fluorescence emission at 665 nm over emission at 620 nm with excitation at 337 nm wavelength) were recorded on a PHERAstar FS plate reader (BMG Labtech). Phosphorylation of MEK1 led to the binding of anti-phospho-MEK1/2 antibody to GST-MEK1 protein that place fluorescent donor (Eu^3+ crypate) in close proximity to the accepter d2 on the anti-GST antibody, thus resulting in a high degree of fluorescence resonance energy transfer from the donor fluorophore (at 620 nm) to the acceptor fluorophore (at 665 nm). […] The IC50 for each compound was derived from fitting the dose-response % inhibition data to the four-parameter logistic model by Graphpad Prism software.

B-Raf (V600E) = B-Raf (V600E) (Homo sapiens (Human), UniProt P15056, V600E); test: Raf IC50 assay, TR-FRET, B-Raf (V600E); conditions: 0.1 mM ATP; read-out: IC50 BRAF-V600E
Chain of B-Raf (V600E) (P15056 whole entry V600E): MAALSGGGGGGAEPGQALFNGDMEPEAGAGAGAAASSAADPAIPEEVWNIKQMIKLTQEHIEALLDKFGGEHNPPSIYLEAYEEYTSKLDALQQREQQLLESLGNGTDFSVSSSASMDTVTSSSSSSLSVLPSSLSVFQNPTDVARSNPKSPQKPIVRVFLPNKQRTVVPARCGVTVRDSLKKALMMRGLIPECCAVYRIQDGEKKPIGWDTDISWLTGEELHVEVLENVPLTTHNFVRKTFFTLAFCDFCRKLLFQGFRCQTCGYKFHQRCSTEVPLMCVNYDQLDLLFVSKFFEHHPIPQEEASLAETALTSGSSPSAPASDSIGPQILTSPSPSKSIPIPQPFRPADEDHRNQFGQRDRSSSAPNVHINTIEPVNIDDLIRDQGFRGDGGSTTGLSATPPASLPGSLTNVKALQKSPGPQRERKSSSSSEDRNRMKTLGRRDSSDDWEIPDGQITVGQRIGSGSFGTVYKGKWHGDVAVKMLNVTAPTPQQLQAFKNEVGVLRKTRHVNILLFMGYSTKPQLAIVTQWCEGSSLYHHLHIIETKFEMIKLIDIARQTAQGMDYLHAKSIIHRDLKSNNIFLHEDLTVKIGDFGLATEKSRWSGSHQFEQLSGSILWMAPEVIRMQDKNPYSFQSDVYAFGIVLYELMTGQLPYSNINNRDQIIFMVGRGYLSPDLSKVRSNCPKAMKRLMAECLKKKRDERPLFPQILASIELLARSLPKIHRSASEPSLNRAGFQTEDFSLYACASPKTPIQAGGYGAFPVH

wild type B-Raf = wild type B-Raf (Homo sapiens (Human), UniProt P15056); test: WT BRaf IC50 assay, TR-FRET
Chain of wild type B-Raf (P15056 whole entry, the tested form may be a part): as the sequence (P15056 whole entry V600E) above, with E600V counted along it

EGFR L858R kinase domain = EGFR L858R kinase domain (Homo sapiens (Human), UniProt P00533, L858R); test: EGFR enzymatic assay, TR-FRET, EGFR L858R
Chain of EGFR L858R kinase domain (P00533 669-1210 L858R): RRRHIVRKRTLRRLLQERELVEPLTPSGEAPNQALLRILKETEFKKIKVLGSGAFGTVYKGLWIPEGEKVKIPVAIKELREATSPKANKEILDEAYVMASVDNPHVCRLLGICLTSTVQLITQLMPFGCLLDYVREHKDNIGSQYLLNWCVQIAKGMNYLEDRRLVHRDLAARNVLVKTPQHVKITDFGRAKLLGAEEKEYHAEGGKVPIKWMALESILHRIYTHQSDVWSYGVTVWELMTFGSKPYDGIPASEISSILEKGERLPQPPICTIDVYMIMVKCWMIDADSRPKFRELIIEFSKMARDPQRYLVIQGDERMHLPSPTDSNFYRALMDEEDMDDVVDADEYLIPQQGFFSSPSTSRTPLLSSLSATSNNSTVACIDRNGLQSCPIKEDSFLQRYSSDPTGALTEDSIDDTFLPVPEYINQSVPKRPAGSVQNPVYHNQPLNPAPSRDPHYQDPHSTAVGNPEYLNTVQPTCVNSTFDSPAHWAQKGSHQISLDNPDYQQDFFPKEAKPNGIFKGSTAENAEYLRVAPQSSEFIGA

[2] = Km ATP ([…] ATP), read-out: IC50 Braf-WT Km ATP

Chain of EGFR T790M/L858R kinase domain (P00533 669-1210 T790M/L858R): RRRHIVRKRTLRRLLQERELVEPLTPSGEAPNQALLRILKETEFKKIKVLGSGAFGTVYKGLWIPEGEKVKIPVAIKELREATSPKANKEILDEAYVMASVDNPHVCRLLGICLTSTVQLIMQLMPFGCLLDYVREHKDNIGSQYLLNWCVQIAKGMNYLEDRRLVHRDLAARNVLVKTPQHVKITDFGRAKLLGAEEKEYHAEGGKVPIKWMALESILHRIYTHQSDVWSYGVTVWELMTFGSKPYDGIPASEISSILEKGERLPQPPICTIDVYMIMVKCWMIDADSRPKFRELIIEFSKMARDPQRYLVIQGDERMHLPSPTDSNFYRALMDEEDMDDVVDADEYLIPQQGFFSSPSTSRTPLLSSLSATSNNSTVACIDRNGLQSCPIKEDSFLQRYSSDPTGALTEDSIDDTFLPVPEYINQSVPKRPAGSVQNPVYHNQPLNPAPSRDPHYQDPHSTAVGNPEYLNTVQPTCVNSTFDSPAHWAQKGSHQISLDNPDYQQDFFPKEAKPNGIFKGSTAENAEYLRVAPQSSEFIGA
Chain of WT EGFR kinase domain (P00533 669-1210): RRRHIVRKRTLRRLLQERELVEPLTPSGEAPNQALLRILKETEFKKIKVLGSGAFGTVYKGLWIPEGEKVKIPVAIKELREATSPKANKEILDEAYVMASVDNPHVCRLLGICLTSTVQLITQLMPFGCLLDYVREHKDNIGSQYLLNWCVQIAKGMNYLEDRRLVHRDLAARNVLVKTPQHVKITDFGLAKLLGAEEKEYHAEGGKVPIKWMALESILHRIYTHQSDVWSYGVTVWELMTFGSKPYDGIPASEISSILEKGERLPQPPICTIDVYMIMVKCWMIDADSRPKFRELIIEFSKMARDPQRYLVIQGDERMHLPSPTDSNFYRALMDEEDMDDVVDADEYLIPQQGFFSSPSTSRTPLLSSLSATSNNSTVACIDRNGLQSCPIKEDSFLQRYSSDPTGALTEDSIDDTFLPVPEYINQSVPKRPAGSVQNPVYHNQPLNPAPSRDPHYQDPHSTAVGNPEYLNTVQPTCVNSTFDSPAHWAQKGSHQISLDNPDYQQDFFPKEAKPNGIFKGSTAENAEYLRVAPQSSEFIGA

SMILES	IC50 [1] [nM]	IC50 (WT EGFR kinase domain) [nM]	IC50 (C-Raf (Y340D/Y341D)) [nM]	IC50 (B-Raf (V600E)) [nM]	IC50 (wild type B-Raf; [2]) [nM]	IC50 (EGFR L858R kinase domain) [nM]	IC50 (wild type B-Raf; IC50 Braf-WT […] ATP, […] ATP) [nM]
CN(C)[C@H]1CCCN(Cc2ccc(C(=O)N[C@@H]3[C@H]4Oc5ccc(Oc6ccnc7c6CCC(=O)N7)cc5[C@@H]34)cc2C(F)(F)F)C1 [Compound 1.32]	1.3	1.5	2.5	13	21	0.47	
CCN1CCN(Cc2ccc(C(=O)N[C@H]3[C@@H]4Oc5ccc(Oc6ccnc7c6CCC(=O)N7)cc5[C@H]34)cc2C(F)(F)F)CC1 [Compound 1.33, 4-((4-ethylpiperazin-1-yl)methyl)-N-((1R,1aR,6bR)-5-((7-oxo-5,6,7,8-tetrahydro-1,8-naphthyridin-4-yl)oxy)-1a,6b-dihydro-1H-cyclopropa [b]benzofuran-1-yl)-3-(trifluoromethyl)benzamide]	293	774	0.47	16	35	146	
O=C1CCc2c(Oc3ccc4c(c3)[C@H]3[C@H](NC(=O)c5cccc(C(F)(F)F)c5)[C@H]3O4)ccnc2N1 [Compound 1.35]	47	18	0.33	1.2	4.4	9.7	12
O=C1CCc2c(Oc3ccc4c(c3)[C@H]3[C@H](NC(=O)c5cccc(F)c5)[C@H]3O4)ccnc2N1 [Compound 1.39]	692	75	0.15	0.76	0.9	30	
O=C1CCc2c(Oc3ccc4c(c3)[C@H]3[C@H](NC(=O)c5ccc(C(F)(F)F)cc5)[C@H]3O4)ccnc2N1 [Compound 1.40]	84	13	0.64	8.1	5.7	12	

The next lines start with the values.

IC50 [1] [nM]	IC50 (WT EGFR kinase domain) [nM]	IC50 (C-Raf (Y340D/Y341D)) [nM]	IC50 (B-Raf (V600E)) [nM]	IC50 (wild type B-Raf; [2]) [nM]	IC50 (EGFR L858R kinase domain) [nM]	IC50 (wild type B-Raf; IC50 Braf-WT […] ATP, […] ATP) [nM]	SMILES
38	13	0.34	4.1	4.4	11		CC(C)(C#N)c1cccc(C(=O)N[C@@H]2[C@H]3Oc4ccc(Oc5ccnc6c5CCC(=O)N6)cc4[C@@H]23)c1 [Compound 1.43]
6.6	1.4	1.2	10	8.5	0.39		CN(C)[C@H]1CCCN(c2ccc(C(=O)N[C@@H]3[C@H]4Oc5ccc(Oc6ccnc7c6CCC(=O)N7)cc5[C@@H]34)cc2C(F)(F)F)C1 [Compound 1.47, 4-((S)-3-(dimethylamino)piperidin-1-yl)-N-((1S,1aS,6bS)-5-((7-oxo-5,6,7,8-tetrahydro-1,8-naphthyridin-4-yl)oxy)-1a,6b-dihydro-1H-cyclopropa[b]benzofuran-1-yl)-3-(trifluoromethyl)benzamide]
38	5.1	2.6	9.5	13	4.6		CN1CCN(c2ccc(C(=O)N[C@@H]3[C@H]4Oc5ccc(Oc6ccnc7c6CCC(=O)N7)cc5[C@@H]34)cc2C(F)(F)F)CC1 [Compound 1.49]
0.25	1.8	2.3	16	15	0.38		CCN1CCN(Cc2ccc(C(=O)N[C@@H]3[C@H]4Oc5ccc(Oc6ccnc7c6COC(=O)N7)cc5[C@@H]34)cc2C(F)(F)F)CC1 [Compound 2.1, 4-((4-ethylpiperazin-1-yl)methyl)-N-((1S,1aS,6bS)-5-((2-oxo-2,4-dihydro-1H-pyrido[2,3-d][1,3]oxazin-5-yl)oxy)-1a,6b-dihydro-1H-cyclopropa[b]benzofuran-1-yl)-3-(trifluoromethyl)benzamide]
22	7.1	12	54	52	4.7		CCN1CCN(Cc2ccc(C(=O)N[C@@H]3[C@H]4Oc5ccc(Oc6ccnc(C(=O)NC)c6)cc5[C@@H]34)cc2C(F)(F)F)CC1 [Compound 2.3, 4-(((1S,1aS,6bS)-1-(4-((4-ethylpiperazin-1-yl)methyl)-3-(trifluoromethyl)benzamido)-1a,6b-dihydro-1H-cyclopropa[b]benzofuran-5-yl)oxy)-N-methylpicolinamide]
